Counter-ions that a name gives are not always drawn. Like-named read-outs stand apart in the source and are kept apart here.
What was measured:
TNF-α [1] = assay: Serum TNF-α (ELISA) in septic mice after cecal ligation and puncture; assay type: in vivo, BALB/c mice; conditions: for decrease of serum level TNF-α compared to vehicle control: blood 6 h after treatment
Description: (§1) Cecal Ligation and Puncture (CLP) was performed as described in Fink and Heard, J. of Surg. Res. 49:186-196 (1990), Wichman et al., Crit. Care Med. 26:2078-2086 (1998) and Remick et al., Shock 4:89-95 (1995). Briefly, BALB/c mice were anesthetized with 100 mg/kg ketamine (Fort Dodge, Fort Dodge, Iowa) and 10 mg/kg of xylazine (Bohringer Ingelheim, St. Joseph, Mo.) intramuscularly. A midline incision was performed, and the cecum was isolated. A 6-0 prolene suture ligature was placed at a level 5.0 mm from the cecal tip away from the ileocecal valve.
The ligated cecal stump was then punctured once with a 22-gauge needle, and 2mm stool extruded. The cecum was then placed back into its normal intra-abdominal position. The abdomen was then closed with a running suture of 6-0 prolene in two layers, peritoneum and fascia separately to prevent leakage of fluid. All animals were resuscitated with a normal saline solution administered sub-cutaneously at 20 ml/kg of body weight. Each mouse received a subcutaneous injection of imipenem (0.5 mg/mouse) (Primaxin, Merck & Co., Inc., West Point, Pa.) 30 minutes after the surgery. Animals were then allowed to recuperate.
Twenty-four hours after surgery, mice were intraperitoneally administered either 0.01 mg/kg or 0.1 mg/kg Galantamine Hydrobromide (CalBioChem, San Diego, Calif.) or vehicle control (saline). Galantamine was prepared in saline to a final concentration of 10 mg/ml. Mice were euthanized 6 hours after treatment with Galantamine or vehicle control (30 hours after surgery) and blood was collected by cardiac puncture for TNF-α measurement. TNF-α was measured by ELISA (mouse ELISA kit from R&D Systems Inc., Minneapolis, Minn.).
Cecal ligation and puncture were performed as described above. Randomly selected mice were treated intraperitoneally with vehicle (saline, 200 ul) or tacrine (2.5 μg/kg or 0.25 μg/kg) twice daily for 3 days, starting 24 hours after surgery. Mice were monitored for survival twice daily for three weeks. […] TNF was measured by ELISA as discussed above. HMGB1 was measured in sera by Western blot as discussed above.

HMGB1 = assay: Serum HMGB1 (western blot) in septic mice after cecal ligation and puncture; assay type: in vivo
Description: as §1
The ligated cecal stump was then punctured once with a 22-gauge needle, and 2mm stool extruded. The cecum was then placed back into its normal intra-abdominal position. The abdomen was then closed with a running suture of 6-0 prolene in two layers, peritoneum and fascia separately to prevent leakage of fluid. […]
Cecal Ligation and Puncture (CLP) was performed as described above in Example 1. […] HMGB1 was measured by western blot using anti-HMG1 polyclonal antisera (U.S. Pat. No. 6,303,321) and standard methods. Band densities were measured using a Bio-Rad Imaging densitometer. […]
Cecal ligation and puncture were performed as described above. […] Mice were monitored for survival twice daily for three weeks. […] TNF was measured by ELISA as discussed above. HMGB1 was measured in sera by Western blot as discussed above.

[2] = test system: murine CLP model of sepsis; assay type: in vivo, mice
TNF-α [3] = assay: Serum TNF-α in endotoxemic rats after intracerebroventricular administration; assay type: in vivo; conditions: ICV 1 hour before endotoxemia, doses tested 1-1000 ng/kg, dose of the result not stated
Description: Endotoxemia was induced in rats via intraperitoneal (IP) injection of endotoxin (lipopolysaccharide, LPS; E. coli 0111:B4, Sigma; 10 mg/ml in PBS) (10-30 mg/kg, IP). Rats were anesthetized with ketamine (10%) in xylazine and placed in a stereotatic head frame (Stoelting Co.). The incisor bar was adjusted until the plane defined by the lambda and bregma was parallel to the base plate. The needle of a Hamilton syringe ([…]) was stereotactically guided into lateral ventricle (0.8 mm posterior to bregma, 1.5 mm lateral to midline, 3.5 mm below the dura). Galantamine at 1, 10, 100 and 1000 ng/kg was dissolved in sterile endotoxin-free saline and administered over 2 min. Vehicle control (saline) was also administered over 2 min. The location of intracerebroventricular (i.c.v.) injections was confirmed by histological examination of the brain after the experiment. TNF-α was measured as described above.

TNF = assay: Serum TNF (ELISA) in endotoxemic mice; assay type: in vivo, BALB/c mice
Description: Male BALB/c mice were injected intraperitoneally with 6 mg/kg endotoxin (lipopolysaccharide, E. coli 0111:B4, Sigma, St. Louis, Mo.; 10 mg/ml in pyrogen-free saline), which had been sonicated for 30 min. Galantamine (CalBioChem, San Diego, Calif.) at doses of 0.1, 1, 2 or 4 mg/kg or vehicle control were injected intraperitoneally one hour before endotoxin administration in anesthetized animals. One and half hours after endotoxin exposure, blood was harvested for TNF measurement.
Blood was centrifuged at 5,000 rpm (1,500×g) for 15 min and the supernatants were collected for TNF determination. Serum and supernatants were used for TNF protein analysis by ELISA (R&D Systems Inc., Minneapolis, Minn.) according to the manufacturer's instructions.

[4] = test system: murine model of lethal endotoxemia; assay type: in vivo, mice; conditions: for mice survived: 14 days after endotoxin, vehicle none survived
[5] = 2.5 μg/kg i.p. 24 h after CLP, blood 6 h later

Q: Which results are given for `COc1ccc2c3c1O[C@H]1C[C@@H](O)C=C[C@@]31CCN(C)C2` [Galantamine]?
A: decrease of serum level TNF-α compared to vehicle control (TNF-α [1]; 0.01 mg/kg i.p. 24 h after CLP): approximately 50%; decrease of serum level TNF-α compared to vehicle control (TNF-α [1]; 0.1 mg/kg i.p. 24 h after CLP): ~80%; decrease of serum level of HMGB1 compared to vehicle control (HMGB1; 0.1 mg/kg i.p. 24 h after CLP, blood 6 h after treatment): about 50%; survival from lethal sepsis ([2]; 10 μg/kg i.p. twice daily, 3 days, from 24 h after CLP, monitored 3 weeks, vehicle 37%): 58%; survival from lethal sepsis ([2]; 100 μg/kg i.p. twice daily, 3 days, from 24 h after CLP, monitored 3 weeks, vehicle 37%, p<0.05): 90%; mice survived ([2]; Day 6, 10 ug/kg i.p. twice a day for 3 days from 24 h after CLP, vehicle 37%): 58%; mice survived ([2]; Day 6, 100 ug/kg i.p. twice a day for 3 days from 24 h after CLP, vehicle 37%): 90%; decrease of serum level TNF-α compared to vehicle control (TNF-α [3]): approximately 94%; inhibition of serum TNF in endotoxemic mice (TNF; 2 mg/kg i.p. 1 h before endotoxin): nearly two-fold inhibition; inhibition of serum TNF in endotoxemic mice (TNF; 4 mg/kg i.p. 1 h before endotoxin): nearly three-fold inhibition; effect on serum TNF in endotoxemic mice (TNF; 1, 2 and 4 mg/kg i.p. 1 h before endotoxin, blood 1.5 h after endotoxin): significantly inhibited serum TNF; mice survived ([4]; 4 mg/kg i.p. six hours before endotoxin): about 75%; increase in survival ([4]; day 14, 1 mg/kg i.p. 1 h before endotoxin): about 15%; increase in survival ([4]; day 14, 2 mg/kg i.p. 1 h before endotoxin): ~25%; increase in survival compared with vehicle control ([4]; day 14, 4 mg/kg i.p. 1 h before endotoxin): about 90%

Q: With `CN(C)C(=O)Oc1cccc([N+](C)(C)C)c1` [Neostigmine, Neostigmine methyl sulfate] as the molecule, how does the mice survived ([4]; 0.1 mg/kg i.p. 30 minutes before endotoxin) read?
A: about 50%

Q: How did the “effect on serum TNF in septic mice” value (TNF-α [1]; [5]) turn out when `Nc1c2c(nc3ccccc13)CCCC2` [Tacrine] was run?
A: significantly reduced

Q: What about the “effect on serum HMGB1 in septic mice” value (HMGB1; [5]) of the same molecule?
A: significantly reduced

Q: And the “effect on survival in mice with polymicrobial sepsis” value ([2]; mouse, in vivo, ip)?
A: significantly improved survival

Q: What about the mice survived ([2]; mouse, in vivo, ip) of the same molecule?
A: all

Q: What about the “survival from lethal sepsis” value ([2]; mouse, in vivo, ip) of the same molecule?
A: 100%

From US8003632B2, “Cholinesterase inhibitors for treating inflammation” (priority 2004, dated 2011)
